Reference: patent publication US20040156869A1, “2-substituted quinazolin-4-ylamine analogues” (Neurogen Corporation, priority 2002, published 2004)

What follows are molecules tested against human capsaicin receptor (VR1) (Homo sapiens, UniProt Q8NER1) (assay: Capsaicin receptor binding assay ([3H]RTX competition, VR1-transfected HEK293 membranes)).
human capsaicin receptor (VR1), sequence (Q8NER1 whole entry): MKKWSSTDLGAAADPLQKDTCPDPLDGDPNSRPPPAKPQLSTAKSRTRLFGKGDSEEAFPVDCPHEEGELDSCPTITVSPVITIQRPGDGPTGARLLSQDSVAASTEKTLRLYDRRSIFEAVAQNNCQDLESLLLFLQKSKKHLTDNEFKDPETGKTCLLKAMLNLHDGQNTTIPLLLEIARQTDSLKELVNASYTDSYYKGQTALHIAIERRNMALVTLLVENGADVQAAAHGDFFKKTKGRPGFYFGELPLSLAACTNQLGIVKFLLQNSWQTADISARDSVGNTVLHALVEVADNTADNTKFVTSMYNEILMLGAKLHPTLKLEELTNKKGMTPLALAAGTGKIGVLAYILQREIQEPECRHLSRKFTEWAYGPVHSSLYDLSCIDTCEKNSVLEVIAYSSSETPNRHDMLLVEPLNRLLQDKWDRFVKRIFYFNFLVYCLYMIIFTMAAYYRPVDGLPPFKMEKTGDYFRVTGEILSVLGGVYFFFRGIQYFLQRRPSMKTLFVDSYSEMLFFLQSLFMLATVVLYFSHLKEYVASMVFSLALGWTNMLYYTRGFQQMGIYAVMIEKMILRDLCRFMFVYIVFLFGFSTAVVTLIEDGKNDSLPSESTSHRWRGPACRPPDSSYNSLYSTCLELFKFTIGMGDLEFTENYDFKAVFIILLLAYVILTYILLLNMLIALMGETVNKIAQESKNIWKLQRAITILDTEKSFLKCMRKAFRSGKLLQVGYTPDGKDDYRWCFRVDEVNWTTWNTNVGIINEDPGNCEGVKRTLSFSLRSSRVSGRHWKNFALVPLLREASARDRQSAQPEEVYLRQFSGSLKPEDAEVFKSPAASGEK

Row | SMILES | Ki
1 | COCc1nc(Nc2ccc(S(C)(=O)=O)cc2)c2ccc(-c3ncccc3C(F)(F)F)nc2n1 [Compound 112, (4-Methanesulfonyl-phenyl)-[2-methoxymethyl-7-(3-trifluoromethyl-pyridin-2-yl)-pyrido[2,3-d]pyrimidin-4-yl]-amine] | < 1000 nM
2 | CCCN(Cc1nc(Nc2ccc(C(F)(F)F)nc2)c2ccc(-c3ncccc3C(F)(F)F)cc2n1)CC1CC1 [Compound 375, [2-[(Cyclopropylmethyl-propyl-amino)-methyl]-7-(3-trifluoromethyl-pyridin-2-yl)-quinazolin-4-yl]-(6-trifluoromethyl-pyridin-3-yl)-amine] | < 1000 nM
3 | CCN(Cc1nc(Nc2ccc(C(C)C)cc2)c2ccc(-c3ncccc3C)cc2n1)C(C)C [Compound 717, [2-[(Ethyl-isopropyl-amino)-methyl]-7-(3-methyl-pyridin-2-yl)-quinazolin-4-yl]-(4-isopropyl-phenyl)-amine] | < 1000 nM
4 | FC(F)(F)c1ccc(Nc2nc(Cn3ccnc3)nc3cc(-c4ncccc4C(F)(F)F)cnc23)cc1 [Compound 699, [2-Imidazol-1-ylmethyl-7-(3-trifluoromethyl-pyridin-2-yl)-pyrido[3,2-d]pyrimidin-4-yl]-(4-trifluoromethyl-phenyl)-amine] | < 1000 nM
5 | Cc1cccnc1-c1ccc2c(Nc3ccc(C(F)(F)F)cc3)nc(C3CNC3)nc2n1 [Compound 735, [2-Azetidin-3-yl-7-(3-methyl-pyridin-2-yl)-pyrido[2,3-d]pyrimidin-4-yl]-(4-trifluoromethyl-phenyl)-amine] | < 1000 nM
6 | CCC(c1ccccc1)N(C)CCc1nc(Nc2ccc(C(F)(F)F)cc2)c2ccc(-c3ncccc3C(F)(F)F)cc2n1 (stereo not shown) [Compound 390, [2-{2-[Methyl-(1-phenyl-propyl)-amino]-ethyl}-7-(3-trifluoromethyl-pyridin-2-yl)-quinazolin-4-yl]-(4-trifluoromethyl-phenyl)-amine] | < 1000 nM
7 | CN(Cc1nc(Nc2ccc(C(F)(F)F)nc2)c2ccc(-c3ncccc3C(F)(F)F)cc2n1)Cc1ccccc1F [Compound 355, [2-{[(2-Fluoro-benzyl)-methyl-amino]-methyl}-7-(3-trifluoromethyl-pyridin-2-yl)-quinazolin-4-yl]-(6-trifluoromethyl-pyridin-3-yl)-amine] | < 1000 nM
8 | CC1CC(C)CN(Cc2nc(Nc3ccc(C(F)(F)F)cc3)c3ccc(-c4ncccc4C(F)(F)F)cc3n2)C1 (stereo not shown) [Compound 552, [2-(3,5-Dimethyl-piperidin-1-ylmethyl)-7-(3-trifluoromethyl-pyridin-2-yl)-quinazolin-4-yl]-(4-trifluoromethyl-phenyl)-amine] | < 1000 nM
9 | CCOCc1nc(Nc2ccc(C3(C#N)CCC3)cc2)c2ccc(-c3ncccc3Cl)nc2n1 [Compound 150, 1-{4-[7-(3-Chloro-pyridin-2-yl)-2-ethoxymethyl-pyrido[2,3-d]pyrimidin-4-ylamino]-phenyl}-cyclobutanecarbonitrile] | < 1000 nM
10 | O=C(NCCN1CCOCC1)c1nc(Nc2ccc(C(F)(F)F)cc2)c2ccc(-c3ncccc3C(F)(F)F)nc2n1 [Compound 442, 4-(4-Trifluoromethyl-phenylamino)-7-(3-trifluoromethyl-pyridin-2-yl)-pyrido[2,3-d]pyrimidine-2-carboxylic acid (2-morpholin-4-yl-ethyl)-amide] | < 1000 nM
11 | COCCOCc1nc(Nc2ccc(C(F)(F)F)cc2)c2ccc(-c3ncccc3Cl)nc2n1 [Compound 76, [7-(3-Chloro-pyridin-2-yl)-2-(2-methoxy-ethoxymethyl)-pyrido[2,3-d]pyrimidin-4-yl]-(4-trifluoromethyl-phenyl)-amine] | < 1000 nM
12 | C[C@@H]1CN(Cc2nc(Nc3ccc(C(F)(F)F)cc3)c3ncc(-c4ncccc4Cl)cc3n2)C[C@H](C)O1 [Compound 615, [7-(3-Chloro-pyridin-2-yl)-2-(2,6-dimethyl-morpholin-4-ylmethyl)-pyrido[3,2-d]pyrimidin-4-yl]-(4-trifluoromethyl-phenyl)-amine (cis)] | < 1000 nM
13 | FC(F)(F)c1ccc(Nc2cc(CN3CCOCC3)nc3nc(-c4ncccc4C(F)(F)F)ccc23)cc1 [Compound 800] | < 1000 nM
14 | COCc1nc(Nc2ccc(C(C)(C)COC)cc2)c2ccc(-c3ncccc3Cl)nc2n1 [Compound 61, [7-(3-Chloro-pyridin-2-yl)-2-methoxymethyl-pyrido[2,3-d]pyrimidin-4-yl]-[4-(2-methoxy-1,1-dimethyl-ethyl)-phenyl]-amine] | < 1000 nM
15 | COCc1nc(Nc2ccc(C(C)(C)C#N)cc2)c2ccc(-c3ncccc3Cl)nc2n1 [Compound 62, 2-{4-[7-(3-Chloro-pyridin-2-yl)-2-methoxymethyl-pyrido[2,3-d]pyrimidin-4-ylamino]-phenyl}-2-methyl-propionitrile] | < 1000 nM
16 | O=C(NCCN1CCCC1)c1nc(Nc2ccc(C(F)(F)F)cc2)c2ccc(-c3ncccc3C(F)(F)F)cc2n1 [Compound 763, 4-(4-Trifluoromethyl-phenylamino)-7-(3-trifluoromethyl-pyridin-2-yl)-quinazoline-2-carboxylic acid (2-pyrrolidin-1-yl-ethyl)-amide] | < 1000 nM

Row | SMILES | Ki
17 | CC(=O)N1CCN(Cc2nc(Nc3ccc(C(F)(F)F)nc3)c3ccc(-c4ncccc4C(F)(F)F)cc3n2)CC1 [Compound 489, 1 -{4-[7-(3-Trifluoromethyl-pyridin-2-yl)-4-(6-trifluoromethyl-pyridin-3-ylamino)-quinazolin-2-ylmethyl]-piperazin-1-yl}-ethanone] | < 1000 nM
18 | C[C@@H]1CN(Cc2nc(Nc3ccc(S(=O)(=O)C(F)(F)F)cc3)c3ncc(-c4ncccc4Cl)cc3n2)C[C@H](C)O1 [Compound 617, [7-(3-Chloro-pyridin-2-yl)-2-(2,6-dimethyl-morpholin-4-ylmethyl)-pyrido[3,2-d]pyrimidin-4-yl]-(4-trifluoromethanesulfonyl-phenyl)-amine (cis)] | < 1000 nM
19 | O=C(O)[C@@H]1CCCN1Cc1nc(Nc2ccc(C(F)(F)F)cc2)c2ccc(-c3ncccc3C(F)(F)F)cc2n1 [Compound 730, (S)-1-[4-(4-Trifluoromethyl-phenylamino)-7-(3-trifluoromethyl-pyridin-2-yl)-quinazolin-2-ylmethyl]-pyrrolidine-2-carboxylic acid] | < 1000 nM
20 | CC(C)OCc1cc(Nc2ccc(C(F)(F)F)cc2)c2ccc(-c3ncccc3C(F)(F)F)nc2n1 [Compound 311, [2-Isopropoxymethyl-7-(3-trifluoromethyl-pyridin-2-yl)-[1,8]naphthyridin-4-yl]-(4-trifluoromethyl-phenyl)-amine] | < 1000 nM
21 | C=CCNC(=O)c1nc(Nc2ccc(C(F)(F)F)cc2)c2ccc(-c3ncccc3C(F)(F)F)nc2n1 [Compound 451, 4-(4-Trifluoromethyl-phenylamino)-7-(3-trifluoromethyl-pyridin-2-yl)-pyrido[2,3-d]pyrimidine-2-carboxylic acid allylamide] | < 1000 nM
22 | CC(c1ccc(Nc2nc(COCc3ccccc3)nc3cc(-c4ncccc4C(F)(F)F)ccc23)cc1)C(F)(F)F (stereo not shown) [Compound 23, [2-Benzyloxymethyl-7-(3-trifluoromethyl-pyridin-2-yl)-quinazolin-4-yl]-[4-(2,2,2-trifluoro-1-methyl-ethyl)-phenyl]-amine] | < 1000 nM
23 | COCCN(CCOC)Cc1nc(Nc2ccc(C(F)(F)F)cc2)c2ccc(-c3ncccc3C(F)(F)F)cc2n1 [Compound 344, [2-{[Bis-(2-methoxy-ethyl)-amino]-methyl}-7-(3-trifluoromethyl-pyridin-2-yl)-quinazolin-4-yl]-(4-trifluoromethyl-phenyl)-amine] | < 1000 nM
24 | CC(C)COCc1nc(Nc2ccc(OC(F)(F)F)cc2)c2ccc(-c3ncccc3C(F)(F)F)nc2n1 [Compound 189, [2-Isobutoxymethyl-7-(3-trifluoromethyl-pyridin-2-yl)-pyrido[2,3-d]pyrimidin-4-yl]-(4-trifluoromethoxy-phenyl)-amine] | < 1000 nM
25 | C[C@H]1CN(Cc2nc(Nc3ccc(C(C)(C)C)nc3)c3ccc(-c4ncccc4C(F)(F)F)cc3n2)C[C@H](C)O1 [Compound 609, (S,S)-(6-tert-Butyl-pyridin-3-yl)-[2-(2,6-dimethyl-morpholin-4-ylmethyl)-7-(3-trifluoromethyl-pyridin-2-yl)-quinazolin-4-yl]-amine] | < 1000 nM
26 | CN(C)CC(C)(C)CNC(=O)c1nc(Nc2ccc(C(F)(F)F)cc2)c2ccc(-c3ncccc3C(F)(F)F)nc2n1 [Compound 434, 4-(4-Trifluoromethyl-phenylamino)-7-(3-trifluoromethyl-pyridin-2-yl)-pyrido[2,3-d]pyrimidine-2-carboxylic acid (3-dimethylamino-2,2-dimethyl-propyl)-amide] | < 1000 nM
27 | COCc1nc(Nc2ccc(C(C)(C)COC)cc2)c2ccc(-c3ncccc3C(F)(F)F)cc2n1 [Compound 36, [4-(2-Methoxy-1,1-dimethyl-ethyl)-phenyl]-[2-methoxymethyl-7-(3-trifluoromethyl-pyridin-2-yl)-quinazolin-4-yl]-amine] | < 1000 nM
28 | CCN(CC)Cc1nc(Nc2ccc(C(F)(F)F)nc2)c2ccc(-c3ncccc3C(F)(F)F)cc2n1 [Compound 368, [2-Diethylaminomethyl-7-(3-trifluoromethyl-pyridin-2-yl)-quinazolin-4-yl]-(6-trifluoromethyl-pyridin-3-yl)-amine] | < 1000 nM
29 | CC(C)COCc1nc(Nc2ccc(F)c(F)c2)c2ccc(-c3ncccc3C(F)(F)F)nc2n1 [Compound 252, (3,4-Difluoro-phenyl)-[2-isobutoxymethyl-7-(3-trifluoromethyl-pyridin-2-yl)-pyrido[2,3-d]pyrimidin-4-yl]-amine] | < 1000 nM
30 | COCc1cc(Nc2ccc(C#N)cc2)c2ccc(-c3ncccc3C(F)(F)F)nc2n1 [Compound 305, 4-[2-Methoxymethyl-7-(3-trifluoromethyl-pyridin-2-yl)-[1,8]naphthyridin-4-ylamino]-benzonitrile] | < 1000 nM
31 | CC(C)(C)c1ccc(Nc2nc(CCCO)nc3cc(-c4ncccc4C(F)(F)F)ccc23)cn1 [Compound 16, 3-[4-(6-tert-Butyl-pyridin-3-ylamino)-7-(3-trifluoromethyl-pyridin-2-yl)-quinazolin-2-yl]-propan-1-ol] | < 1000 nM
